Data from patent US12496302B2, “Compositions and methods for the treatment and diagnosis of cancer” (The General Hospital Corporation, priority 2020, dated 2025).

Tests used:
Format in all cases: cell-based
[1] = system: U2OS (DR-GFP) cells; assay: DR-GFP HR reporter assay; settings: 2.5 μM/L for 6 h, in comparison with DMSO treated group
Method: (§1) FIGS. 6A-6E show TRDMT1 Inhibitors specifically sensitizes cells to DNA damage agents. (FIG. 6A) SCE WT cells were transfected with TA-KR and were cultured with 2.5 μM/L, compound YW-1842 or not for 6 hours, m^5C (n=3, 50 cells per replicated, Mean±SD) was stained and quantified. DR-GFP (FIG. 6B) or EJ5-GFP (FIG. 6C) cells were pre-treated with 2.5 μM/L, compound YW-1842 for 6 h or TRDMT1 siRNA for 48 h, or DMSO. Then the cells were transfected with NLS-I-SceI plasmid to induce DSB. The efficiency of HR (FIG. 6B) or NHEJ (FIG. 6C) was analyzed by flow-cytometry (n=3, Mean±SD). (FIG. 6D) After seeding, MCF-7, HCC1954, and HCC1937 cells were pre-treated with or without 2.5 μM/L compound YW-1842 for 6 h, then cultured with chemotherapy drugs (1 μM/L, Cisplatin; 1 μM/L ATRi AZ20; 10 μM/L, ATMi KU55933; 1 μM/L, PARPi Olaparib for 10 days. The survival rate of these cells was analyzed (n=3, Mean±SD). (FIG. 6E) TRDMT1 KO U2OS cells were transfected with GFP-TRDMT1^WT or GFP-TRDMT1^G155V with or without 2.5 μM/L, compound YW-1842, the survival rate of these cells after IR or Cisplatin was shown (n=3, Mean±SD).
(§2) Using a previously described method[Lan, L. et al. The ACF1 complex is required for DNA double-strand break repair in human cells. […] The GFP signal arising from the recombination (HR) or non-homologous end joining (NHEJ) events were measured by flow cytometry.

[2] = system: TRDMT1 KO U2OS cells; assay: Cell survival after IR or Cisplatin in TRDMT1 KO U2OS cells with or without YW-1842; settings: 2.5 μM/L
Method: as §1
Approximately 500 U2OS/TRDMT1 KO U2OS/MCF-7/HCC1954/HCC1937 cells and TRDMT1 siRNA or GFP-TRDMT1 WT/G155V/K251R transfected cells were seeded in 6 cm dish with or without TRDMT1 inhibitors (2.5 μM/L). […]

[3] = system: U2OS or MCF7 cells; assay: Cell survival of U2OS or MCF7 cells treated with YW-1842 alone
Method: (§3) FIGS. 6F-6G show TRDMT1 inhibitor YW-1842 delays the repair of DSBs at the transcribed genome. (FIG. 6F) U2OS or MCF7 cells were treated with or without compound YW-1842 at the indicated concentration. The survival rate of these cells was shown (n=3, Mean±SD). (FIG. 6G) SCE WT cells were transfected with TA-KR and were cultured with 2.5 μM YW-1842 or not for 6 hours, γ-H2AX (n=3, 50 cells per replicated, Mean±SD) were stained and quantified.
(§4) Approximately 500 U2OS/TRDMT1 KO U2OS/MCF-7/HCC1954/HCC1937 cells and TRDMT1 siRNA or GFP-TRDMT1 WT/G155V/K251R transfected cells were seeded in 6 cm dish with or without TRDMT1 inhibitors (2.5 μM/L). 6 hrs after seeding, cells were exposed to cisplatin (1134357, Sigma, 1 μM/L), ATMi (KU55933, C9867, Sigma, 10 μM/L), ATRi (AZ20, S7050, Selleck, 1 μM/L) or PARPi (Olaparib, AZD2461, Sigma, 1 μM/L) at indicated concentration or ionizing radiation (IR). After 7-14 days, colonies were fixed and stained with 0.3% crystal violet in methanol, and the number of colonies was counted manually.

[4] = system: U2OS (EJ5-GFP) cells; assay: EJ5-GFP NHEJ reporter assay; settings: 2.5 μM/L for 6 h, TRDMT1 wild type cells
Method: as §1, §2

[5] = system: γ-H2AX foci; assay: γ-H2AX foci clearance after damage; settings: 2.5 μM/L YW-1842
Method: as §3
Cells for immunofluorescence observation were fixed in 4% PFA (Affymetrix, 19943 1 LT) at room temperature for 15 min and further treated with 0.2% triton for 10 min. They were then blocked by 3% BSA (SIGMA, A-7030) at room temperature for 1 h. Primary antibody for RAD51 (ab63801, Abcam, 1:200)), RAD52 (sc-365341, Santa Cruz, CA, USA, 1:500), TRIM28 (ab10484, Abcam, 1:500), γH2AX ser139 (JBW301, 05-636, EMD Millipore, 1:200), were incubated with cells at 4° C. overnight. After washing with 0.05% PBS-Tween (PBST), the cells were incubated with secondary antibody for 1 h at room temperature.

[6] = system: MCF-7, HCC1954, and HCC1937 cells; assay: Cell survival assay, YW-1842 combined with DNA damaging agents, IR or H2O2
Method: as §1
MCF-7, HCC1954, and HCC1937 cells were pre-treated with or without TRDMT1 inhibitor YW-1842 (2.5 μM) for 6 hrs, then the cells were exposed to IR or H2O2, and cultured for 7-14 days. The survival rate of these cells was analyzed (n=3, Mean±SD)
as §4

## COc1cc2nc(-n3cc(-c4ccc(S(C)(=O)=O)cc4)cn3)nc(-c3ccsc3)c2cc1OC [YW-1842, 6,7-dimethoxy-2-(4-(4-(methylsulfonyl)phenyl)-1H-pyrazol-1-yl)-4-(thiophen-3-yl)quinazoline]
[1]
  HR-mediated repair of I-SceI-generated DSBs: diminished the repair of I-SceI-generated DSBs
[2]
  sensitization of TRDMT1 KO cells to IR or Cisplatin: does not sensitize TRDMT1 KO
[3]; 2.5 μM/L
  cell killing by compound alone: does not kill cells alone
[3]; concentration below 5 μM/L
  antiproliferative effect (cell proliferation): did not prohibit cell proliferation
[4]
  non-homologous end joining (NHEJ) efficiency: no obvious changes
[5]
  DNA repair efficiency (clearance of γ-H2AX foci after IR): delayed clearance of γ-H2AX foci
[6]; 2.5 μM, combined with H2O2
  survival rate in combination with H2O2 compared to DMSO: decreased the survival rate of all the three cell lines
[6]; 2.5 μM, combined with IR
  sensitivity to IR in combination: clear sensitivity enhancement
[6]; 2.5 μM/L pre-treatment 6 h
  sensitization to DNA damaging agents (Cisplatin, ATRi AZ20, ATMi KU55933, PARPi Olaparib) compared to single treatment: sensitizes the cells
[6]; YW-1842 2.5 μM, Olaparib 1 μM, HCC 1954 cell lines
  synergy with PARPi Olaparib: strong synergy
